“Also recorded” adds a separate entry of the source.
Tested on: hyaluronidase
Test: Examination for inhibiting hyaluronic acid degradation (hyaluronidase inhibition, p-DMAB colour reaction, OD 585 nm)
Type: biochemical
Conditions: final concentration: rosemary extract BG 0.000165 w/w % at dry weight, retinol acetate 0.0000516 w/w %; substrate sodium hyaluronate; absorbance OD 585 nm with control (water) adjusted to 100; FIG. 1
Experimental: 50 μl hyaluronidase solution (1 mg/ml) (Sigma Aldrich Japan K.K.) was placed into a microtube, and 50 μl of an evaluation drug was added, and then the mixture was incubated for 10 min at 37° C. Rosemary extract BG (Maruzen Pharmaceuticals, Co., Ltd.), retinol acetate (BASF Japan Ltd.), and rosemary extract and retinol acetate were used as the evaluation drug, and water was used as a control instead of the evaluation agent. Rosemary extract BG was added so that the final concentration thereof after addition of hyaluronic acid sodium aqueous solution was 0.000165 w/w % at dry weight. Retinol acetate was added so that the final concentration thereof after addition of hyaluronic acid sodium aqueous solution was 0.0000516 w/w %. After incubation, 400 μl of 1 mg/ml sodium hyaluronate (Shiseido Co., Ltd., MW 1,100,000-1,600,000) was added to the solution, and then incubated at 37° C., for 10 min, and then 50 μl of sodium hydroxide (0.2 M) was added to stop the reaction. This solution was boiled for 3 min, then cooled with flowing water. 300 μl of 10% p-DMAB (dimethylaminobenzaldehyde) solution (NACALAI TESQUE, Inc.) was added to the solution, and then incubated for 37° C. for 20 min. After bringing it back to room temperature, 100 μl of each solution was poured into each well of 96 well-plate, and OD 585 nm was determined by using […] Pharma Biomedical Co., Ltd.).

retinol acetate
hyaluronidase inhibitory activity: does not have a hyaluronidase activity; also recorded: did not have a hyaluronidase inhibitory activity
